The test system of test [1] is epidermal keratinocytes subjected to Th2 stress. Kind of test: qRT-PCR gene expression in keratinocytes subjected to Th2 stress. Type of test: cell-based, human. As to conditions: 10 μM, 24 h preincubation, Th2 cytokine cocktail 24 h; control = 100. The procedure: (§1) The potential anti-allergic effects of the Chlamydomonas acidophila extract were investigated on: • Gene expression of pro-inflammatory chemokines in normal human epidermal keratinocytes (NHEK) stimulated by a mixture of Th2 cytokines (IL-4+IL-13+IL-22+TNF-α) mimicking a late-phase “atopic dermatitis” type phenotype (chronic inflammation). • Activation of human basophils induced by fMLP. This activation was measured using a specific kit and flow cytometry analysis by quantifying a specific marker of activated basophil cells (CD63) in the total population of basophils identified by expression of the CCR3 marker. In parallel, activation with the anti-FCεRI antibody was performed as a positive control.
Normal human epidermal keratinocytes were preincubated for 24 hours in the presence of the CAP extract at 0.01% dry matter (DM) or reference JAK inhibitor I at 10 μM. After preincubation, the cells were retreated with the CAP extract or reference and then the cells were stimulated with a Th2 cytokine cocktail (IL4+1L13+1L22+TNFα at 10 ng/ml) for 24 hours.
At the end of incubation, gene expression of markers of interest was assessed by qRT-PCR.
Background: Real-time PCR tracks product formation cycle by cycle.

The subject of test [2] is keratinocytes treated with hydrogen peroxide (H2O2). Description: ROS production (DCFH-DA) in keratinocytes treated with H2O2. Type of test: cell-based, human. As to conditions: 24 h preincubation, 100 μM H2O2 20 minutes. The text has this:
The evaluation of the antioxidant effect of the active agent is done through the incorporation of DCFH-DA (2′,7′-dichlorofluorescin diacetate) into cultured keratinocytes. This molecule is a non-fluorescent marker in the non-oxidized state. Under oxidizing conditions (here H2O2 stress), DCFH-DA will be degraded to DCF, a molecule that will emit fluorescence. The fluorescence measured will be proportional to the amount of reactive oxygen species produced by the cell in the presence of H2O2 and/or the extract. Normal human epidermal keratinocytes were preincubated for 24 hours in the presence of the CAP extract at 0.0001% dry matter, quercetin at 10 μM or vitamin C at 500 μM (the latter two molecules serving as antioxidant reference). The cells are then treated for 1 h in the presence of 0.5 mM DCFH-DA. Oxidation is induced by adding 100 μM H2O2 for 20 minutes. A second treatment with the tested products is performed simultaneously with H2O2 stress (at the same concentrations as the pretreatment). Finally, a measurement of the fluorescence density (DFU) corresponding to the amount of ROS is performed using a microplate reader. The significance of the results was checked by a one-way ANOVA followed by a Tuckey test (GraphPad Prism software version 5.02, GraphPad Software, San Diego Calif. USA).

A further test has as its system human basophils. Description: Basophil activation test (Flow CAST), fMLP-stimulated. The conditions noted are these: whole blood, 1 μM fMLP. Format: cell-based. The procedure:
as §1
The basophil activation test (BAT) was performed using the Flow CAST® kit (BUHLMANN, item code FKCCR).
Whole blood was preincubated for 15 minutes in the presence of the CAP extract at 0.033% and 0.1% dry matter (DM) or the references (SB202190 at 30 μM; or cromoglycate at 10 mM).
The stimulant, 1 μM fMLP, was then added and the blood was incubated for an additional 15 minutes in the presence of the labeling buffer containing a mixture of monoclonal antibodies (anti-CD63-FITC and anti-CCR3-PE).
Flow cytometry analysis was then performed to count the total population of basophils (CCR3+) and activated basophils (CCR3+/CD63+).

For test [3], the system named is normal human keratinocytes stimulated with PMA. Kind of test: TNF-alpha assay in keratinocytes stimulated with PMA. As to conditions: 0.1 μM, 24 h pretreatment; for TNF-alpha, change vs PMA: then 10 μg/ml PMA; for TNF-alpha, mean: then 10 μg/ml PMA overnight. Type of test: cell-based. The procedure: (§2) The anti-inflammatory activity of the Chlamydomonas acidophila extract according to the invention was evaluated on a model of inflammation induced on keratinocytes by PMA (phorbol 12-myristate 13-acetate) treatment. The release of the cytokines TNFα and prostaglandin E2 (PGE2) was analyzed.
(§3) Normal human epidermal keratinocytes were pretreated for 24 h with the Chlamydomonas acidophila (CAP) extract according to Example 1, at concentrations comprised between 0.0001% and 0.05% dry matter, or with the anti-inflammatory reference molecules dexamethasone at 0.1 μM or indomethacin at 0.1 μM (the latter two references serving as anti-inflammatory references for cytokines and prostaglandins, respectively).
(§4) Inflammation was then induced by addition of PMA at 10 μg/mL overnight.
(§5) A TNFα and PGE2 assay was then performed in the cell culture supernatants.
(§6) The significance of the results was checked by a one-way ANOVA followed by a Tuckey test (GraphPad Prism software version 5.02, GraphPad Software, San Diego Calif. USA).

For test [4] the test system is unchanged. Description: PGE2 assay in keratinocytes stimulated with PMA. As to conditions: 0.1 μM, 24 h pretreatment; for PGE2, change vs PMA: then 10 μg/ml PMA; for PGE2, mean: then 10 μg/ml PMA overnight. Format: cell-based. The procedure:
as §2, §3, §4, §5, §6

In test [5] the test system is NiSO4-stimulated normal human keratinocytes. Kind of test: IL8 assay in NiSO4-stimulated keratinocytes. As to conditions: 1 μM, 24 h pretreatment, then 10 μM NiSO4 24 h. Format: cell-based. The procedure:
Normal human epidermal keratinocytes were pretreated for 24 hours with CAP extract at 0.01% and 0.05% dry matter or with the anti-inflammatory reference molecule dexamethasone at 1 μM. The keratinocytes were then treated for 24 hours with nickel: NiSO4 at 10 μM. At the end of the incubation, the amount of IL8 produced by the cells was assessed by ELISA in the supernatants.
The concentration of IL8 assayed was normalized to the amount of total intracellular protein assessed by BC Assay.
Significance of results was statistically analyzed by a Student's t-test.

For test [6], the system named is cadmium-stimulated normal human keratinocytes. Kind of test: PGE2 assay in cadmium-stimulated keratinocytes. Format: cell-based. The conditions noted are these: 0.1 μM, 24 h pretreatment, then 100 μM CdCl2 48 h. The procedure: Normal human epidermal keratinocytes were pretreated for 24 hours with the CAP extract at 0.001% and 0.01% dry matter or with the anti-inflammatory reference molecule indomethacin at […]. The keratinocytes were then treated for 48 hours with cadmium: CdCl2 at 100 μM. At the end of the incubation, the amount of PGE2 produced by the cells was assessed by ELISA in the supernatants. The concentration of PGE2 assayed was normalized to the amount of total intracellular protein assessed by BC Assay.

Data on seven molecules can be found in patent US20220071891A1, “Extract of Chlamydomonas Acidophila, Method for Preparing Same and Cosmetic Compositions and Dermatological Compositions Comprising Same” (Laboratoires Expanscience, priority 2018, published 2022).

Molecules are shown by their SMILES.

Consider `CC(C)(C)c1nc2c3cc[nH]c(=O)c3c3cc(F)ccc3c2[nH]1` [JAK inhibitor], for which, in test [1], the “CCL5 Relative expression (%)” value turned out to be 101% and the “CCL27 Relative expression (%)” value worked out at 1436%.
For `O=c1c(O)c(-c2ccc(O)c(O)c2)oc2cc(O)cc(O)c12` [Quercetin, quercetin], in test [2] (10 μM), the “ROS, change vs H2O2” value is reported as −92% vs H2O2 and the “ROS, mean” value was 7787.00 fluorescence units.
`Oc1ccc(-c2nc(-c3ccncc3)c(-c3ccc(F)cc3)[nH]2)cc1` [SB202190]: in the test on human basophils (30 μM), the “% of activated basophils (CCR3+/CD63+), mean” value is recorded as 30.4%.
In the case of `O=C1O[C@H]([C@@H](O)CO)C(O)=C1O` [Vitamin C, vitamin C], in test [2] (500 μM), the “ROS, change vs H2O2” value is recorded as −89% vs H2O2 and the “ROS, mean” value is reported as 10932.50 fluorescence units.
On to `O=C(O)c1cc(=O)c2c(OCC(O)COc3cccc4oc(C(=O)O)cc(=O)c34)cccc2o1` [cromoglycate], for which, in the test on human basophils (10 μM (table; text 10 mM)), the “% of activated basophils (CCR3+/CD63+), mean” value is given as 22.3%.
With `C[C@@H]1C[C@H]2[C@@H]3CCC4=CC(=O)C=C[C@]4(C)[C@@]3(F)[C@@H](O)C[C@]2(C)[C@@]1(O)C(=O)CO` [dexamethasone], in test [3], the “TNF-alpha, change vs PMA” value is given as −56% vs PMA and the “TNF-alpha, mean” value stood at 126.112 pg/mL. Moreover, in test [4], the “PGE2, change vs PMA” value is recorded as −22% vs PMA and the “PGE2, mean” value turned out to be 985.126 pg/mL. In test [5], the “IL8, change vs Ni” value is given as −63% vs Ni and the “IL8, mean” value stood at 1685 pg/ml/mg protein.
Turning to `COc1ccc2c(c1)c(CC(=O)O)c(C)n2C(=O)c1ccc(Cl)cc1` [indomethacin], in test [3], the “TNF-alpha, change vs PMA” value is on record as −60% and the “TNF-alpha, mean” value was 113.266 pg/mL. Moreover, in test [6], the “PGE2, change vs Cd” value was −54% vs Cd and the “PGE2, mean” value is 3.874 pg/μg of protein. In addition, in test [4], the “PGE2, change vs PMA” value is reported as −87% vs PMA and the “PGE2, mean” value came out at 163.031 pg/mL.
